# Laboratory results reported in ChEMBL document CHEMBL1131152, “In vitro and in vivo activities of oligodeoxynucleotide-based thrombin inhibitors containing neutral formacetal linkages” (J Med Chem, 1998).
# Target: Prothrombin (Homo sapiens) (UniProt P00734)
# Assay: Relative prothrombin time was determined as the activity of the test ODN (oligodeoxynucleotide) relative to that of GS-522
row,Relative PT,SMILES
1,0.8,Cc1cn([C@H]2C[C@H](OP(=O)(O)OC[C@H]3O[C@@H](n4cnc5c(=O)[nH]c(=N)[nH]c54)C[C@@H]3OP(=O)(O)OC[C@H]3O[C@@H](n4cc(C)c(=O)[nH]c4=O)C[C@@H]3OP(=O)(O)OC[C@H]3O[C@@H](n4cnc5c(=O)nc(N)[nH]c54)C[C@@H]3OP(=O)(O)OC[C@H]3O[C@@H](n4cnc5c(=O)[nH]c(=N)[nH]c54)C[C@@H]3OP(=O)(O)OC[C@H]3O[C@@H](n4cc(C)c(=O)[nH]c4=O)C[C@@H]3OP(=O)(O)OC[C@H]3O[C@@H](n4cc(C)c(=O)[nH]c4=O)C[C@@H]3OP(=O)(O)OC[C@H]3O[C@@H](n4cnc5c(=O)[nH]c(=N)[nH]c54)C[C@@H]3OP(=O)(O)OC[C@H]3O[C@@H](n4cnc5c(=O)nc(N)[nH]c54)C[C@@H]3O)[C@@H](COCO[C@H]3C[C@H](n4cnc5c(=O)[nH]c(=N)[nH]c54)O[C@@H]3COP(=O)(O)O[C@H]3C[C@H](n4cnc5c(=O)nc(N)[nH]c54)O[C@@H]3COP(=O)(O)O[C@H]3C[C@H](n4cc(C)c(=O)[nH]c4=O)O[C@@H]3COP(=O)(O)O[C@H]3C[C@H](n4cc(C)c(=O)[nH]c4=O)O[C@@H]3COP(=O)(O)O[C@H]3C[C@H](n4cnc5c(=O)nc(N)[nH]c54)O[C@@H]3COP(=O)(O)O[C@H]3C[C@H](n4cnc5c(=O)nc(N)[nH]c54)O[C@@H]3COP(=O)(O)O)O2)c(=O)[nH]c1=O
2,1.1,Cc1cn([C@H]2C[C@H](OCOC[C@H]3O[C@@H](n4cc(C)c(=O)[nH]c4=O)C[C@@H]3OP(=O)(O)OC[C@H]3O[C@@H](n4cnc5c(=O)nc(N)[nH]c54)C[C@@H]3OP(=O)(O)OC[C@H]3O[C@@H](n4cnc5c(=O)[nH]c(=N)[nH]c54)C[C@@H]3OP(=O)(O)OC[C@H]3O[C@@H](n4cc(C)c(=O)[nH]c4=O)C[C@@H]3OP(=O)(O)OC[C@H]3O[C@@H](n4cnc5c(=O)nc(N)[nH]c54)C[C@@H]3OP(=O)(O)OC[C@H]3O[C@@H](n4cc(C)c(=O)[nH]c4=O)C[C@@H]3OP(=O)(O)OC[C@H]3O[C@@H](n4cnc5c(=O)nc(N)[nH]c54)C[C@@H]3OP(=O)(O)OC[C@H]3O[C@@H](n4cnc5c(=O)[nH]c(=N)[nH]c54)C[C@@H]3OP(=O)(O)OC[C@H]3O[C@@H](n4cc(C)c(=O)[nH]c4=O)C[C@@H]3OP(=O)(O)OC[C@H]3O[C@@H](n4cc(C)c(=O)[nH]c4=O)C[C@@H]3OP(=O)(O)OC[C@H]3O[C@@H](n4cnc5c(=O)[nH]c(=N)[nH]c54)C[C@@H]3OP(=O)(O)OC[C@H]3O[C@@H](n4cnc5c(=O)nc(N)[nH]c54)C[C@@H]3O)[C@@H](COP(=O)(O)O[C@H]3C[C@H](n4cnc5c(=O)[nH]c(=N)[nH]c54)O[C@@H]3COP(=O)(O)O[C@H]3C[C@H](n4cnc5c(=O)nc(N)[nH]c54)O[C@@H]3COP(=O)(O)O)O2)c(=O)[nH]c1=O
3,0.6,Cc1cn([C@H]2C[C@H](OCOC[C@H]3O[C@@H](n4cnc5c(=O)[nH]c(=N)[nH]c54)C[C@@H]3OP(=O)(O)OC[C@H]3O[C@@H](n4cnc5c(=O)nc(N)[nH]c54)C[C@@H]3O)[C@@H](COP(=O)(O)O[C@H]3C[C@H](n4cc(C)c(=O)[nH]c4=O)O[C@@H]3COP(=O)(O)O[C@H]3C[C@H](n4cnc5c(=O)[nH]c(=N)[nH]c54)O[C@@H]3COP(=O)(O)O[C@H]3C[C@H](n4cnc5c(=O)nc(N)[nH]c54)O[C@@H]3COP(=O)(O)O[C@H]3C[C@H](n4cc(C)c(=O)[nH]c4=O)O[C@@H]3COP(=O)(O)O[C@H]3C[C@H](n4cnc5c(=O)[nH]c(=N)[nH]c54)O[C@@H]3COP(=O)(O)O[C@H]3C[C@H](n4cc(C)c(=O)[nH]c4=O)O[C@@H]3COP(=O)(O)O[C@H]3C[C@H](n4cnc5c(=O)[nH]c(=N)[nH]c54)O[C@@H]3COP(=O)(O)O[C@H]3C[C@H](n4cnc5c(=O)nc(N)[nH]c54)O[C@@H]3COP(=O)(O)O[C@H]3C[C@H](n4cc(C)c(=O)[nH]c4=O)O[C@@H]3COP(=O)(O)O[C@H]3C[C@H](n4cc(C)c(=O)[nH]c4=O)O[C@@H]3COP(=O)(O)O[C@H]3C[C@H](n4cnc5c(=O)nc(N)[nH]c54)O[C@@H]3COP(=O)(O)O[C@H]3C[C@H](n4cnc5c(=O)nc(N)[nH]c54)O[C@@H]3COP(=O)(O)O)O2)c(=O)[nH]c1=O
